# Reference: patent US9174980B2, “Heterocyclic compounds as inhibitors of leukotriene production” (Boehringer Ingelheim International GmbH, priority 2012, dated 2015)
# Tests used:
# [1] = target: T1, recombinant human FLAP protein (Homo sapiens, UniProt P20292); experiment: FLAP binding assay (Scintillation Proximity Assay, displacement of [125I]L-691,831); details: read-out: Human FLAP SPA Binding (IC50 nM)
# T1 construct: made in house; host or cells: Sf9 insect cells (membrane fraction, 100,000 x g pellet)
# T1 sequence (P20292 1-161): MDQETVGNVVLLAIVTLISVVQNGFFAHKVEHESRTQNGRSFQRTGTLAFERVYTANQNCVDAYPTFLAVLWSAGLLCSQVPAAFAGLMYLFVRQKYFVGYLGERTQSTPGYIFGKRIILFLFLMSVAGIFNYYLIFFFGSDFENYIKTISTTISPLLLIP
# Protocol: Compounds are assessed for the ability to bind to FLAP in a binding assay that measures compound-specific displacement of an iodinated (^125I) FLAP inhibitor via a Scintillation Proximity Assay format (adapted from S. Charleson et al., Mol. Pharmacol., 1992, 41, 873-879).
# Cell pellets produced from sf9 insect cells expressing recombinant human FLAP protein are resuspended in buffer A [15 mM Tris-HCl (pH 7.5), 2 mM MgCl2, 0.3 mM EDTA, 1 mM PMSF]. The cells are lysed with a Dounce homogenizer and the material is centrifuged at 10,000×g for 10 minutes. The supernatant is then collected and centrifuged at 100,000×g for 60 minutes. To prepare membrane protein for an assay, an aliquot of the 100,000×g pellet is resuspended in 1 ml of buffer A, Dounce homogenized, and finally subjected to polytron mixing (30 seconds). Membrane protein (25 μl, 5 μg) is mixed with WGA SPA beads (Amersham) and stirred for 1 h. To an assay plate (Perkin Elmer FlexiPlate) is added 25 μl of test compound prepared in Binding buffer [100 mM Tris (pH 7.5), 140 mM NaCl, 5% glycerol, 2 mM EDTA, 0.5 mM TCEP, 0.05% Tween 20], 25 μl of [^125I]L-691,831 (an iodinated analog of MK-591, Charleson et al. Mol. Pharmacol., 41, 873-879, 1992) and finally 50 μl of the bead/protein mixture. (final concentrations: beads, 200 μg/well; protein, 5 μg/well; [^125I] probe, 0.08 nM/well (17 nCi/well). The plates are shaken for 2 h before reading on a Microbeta plate reader. Non-specific binding is determined by the addition of 10 μM cold L-691,831 compound.
# [2] = test system: synthesis of LTB4 in human whole blood; experiment: Human whole blood assay (calcimycin-stimulated LTB4 synthesis); type: cell-based; details: Homo sapiens; read-out: Human Whole Blood LTB4 Assay for FLAP (IC50 nM)
# Protocol: Compounds are additionally tested in a human whole blood assay to determine their ability to inhibit the synthesis of LTB4 in a cellular system. Compounds are combined with heparinized human whole blood and incubated for 15 minutes at 37° C. Calcimycin (20 μM final, prepared in phosphate-buffered saline, pH 7.4) is then added and the mixture is incubated for another 30 minutes at 37° C. The samples are centrifuged for 5 min at low speed (1500×g) and the plasma layer is removed. Plasma LTB4 concentrations are then measured using an antibody-based homogenous time-resolved fluorescence method (CisBio, Bedford, Mass.).
Structure (SMILES),IC50 [1],IC50 [2]
"CC(C)C(C)(c1ccc(-c2cnc(N)nc2)cc1)c1c[nH]c2cc(OC3CCOC3)ccc12 (stereo not shown) [Example 54, 5-(4-{3-methyl-2-[6-(tetrahydrofuran-3-yloxy)-1H-indol-3-yl]butan-2-yl}phenyl)pyrimidin-2-amine]",8.3 nM,840 nM
"COCC(C)(c1ccc(-c2cnc(N)nc2)cc1)c1cn(CC(=O)O)c2ncccc12 (stereo not shown) [Example 55, (3-{2-[4-(2-aminopyrimidin-5-yl)phenyl]-1-methoxypropan-2-yl}-1H-pyrrolo[2,3-b]pyridin-1-yl)acetic acid]",1100 nM,> 5000 nM
"COCC(C)(c1ccc(-c2cnc(N)nc2)cc1)c1cn(C)c2ncccc12 (stereo not shown) [Example 56, 5-{4-[1-methoxy-2-(1-methyl-1H-pyrrolo[2,3-b]pyridin-3-yl)propan-2-yl]phenyl}pyrimidin-2-amine]",160 nM,> 5000 nM
"COc1cccc2[nH]cc(C(C)(c3ccc(-c4cnc(N)nc4)cc3)C(C)C)c12 (stereo not shown) [Example 57, 5-{4-[2-(4-methoxy-1H-indol-3-yl)-3-methylbutan-2-yl]phenyl}pyrimidin-2-amine]",37 nM,2600 nM
"CC(C)C(C)(c1ccc(-c2cnc(N)nc2)cc1)c1c[nH]c2cccc(F)c12 (stereo not shown) [Example 58, 5-{4-[2-(4-fluoro-1H-indol-3-yl)-3-methylbutan-2-yl]phenyl}pyrimidin-2-amine]",1.1 nM,69 nM
"CC(C)C(C)(c1ccc(-c2cnc(N)nc2)cc1)c1c[nH]c2c(F)cccc12 (stereo not shown) [Example 59, 5-{4-[2-(7-fluoro-1H-indol-3-yl)-3-methylbutan-2-yl]phenyl}pyrimidin-2-amine]",0.65 nM,330 nM
"CC(C)C(C)(c1ccc(-c2cnc(N)nc2)cc1)c1c[nH]c2cc(F)ccc12 (stereo not shown) [Example 60, 5-{4-[2-(6-fluoro-1H-indol-3-yl)-3-methylbutan-2-yl]phenyl}pyrimidin-2-amine]",0.86 nM,170 nM
"CC(C)C(C)(c1ccc(-c2cnc(N)nc2)cc1)c1cc2ccc(F)cc2[nH]1 (stereo not shown) [Example 61, 5-{4-[2-(6-fluoro-1H-indol-2-yl)-3-methylbutan-2-yl]phenyl}pyrimidin-2-amine]",9.3 nM,1200 nM
"CC(C)C(C)(c1ccc(-c2cnc(N)nc2)cc1)c1cc2c(F)cccc2[nH]1 (stereo not shown) [Example 62, 5-{4-[2-(4-fluoro-1H-indol-2-yl)-3-methybutan-2-yl]phenyl}pyrimidin-2-amine]",18 nM,2300 nM

# Results, then the molecule that gave them:
IC50 [1],IC50 [2],Structure (SMILES)
3 nM,440 nM,"CC(C)C(C)(c1ccc(-c2cnc(N)nc2)cc1)c1c[nH]c2ccc(F)cc12 (stereo not shown) [Example 63, 5-{4-[2-(5-fluoro-1H-indol-3-yl)-3-methylbutan-2-yl]phenyl}pyrimidin-2-amine]"
0.85 nM,1400 nM,"CC(C)C(C)(c1ccc(OCc2ccccn2)cc1)c1c[nH]c2cc(C(=O)O)ccc12 (stereo not shown) [Example 64, 3-[1,2-dimethyl-1-[4-(2-pyridylmethoxy)phenyl]propyl]-1H-indole-6-carboxylic acid]"
0.57 nM,1800 nM,"CC(C)C(C)(c1ccc(-c2cnc(N)nc2)cc1)c1c[nH]c2cc(-c3nnc(N)o3)ccc12 (stereo not shown) [Example 65, 5-[3-[1-[4-(2-aminopyrimidin-5-yl)phenyl]-1,2-dimethyl-propyl]-1H-indol-6-yl]-1,3,4-oxadiazol-2-amine]"
1.2 nM,170 nM,"CC(C)C(C)(c1ccc(-c2ccc(N)nc2)cc1)c1c[nH]c2ccccc12 (stereo not shown) [Example 66, 5-{4-[2-(1H-indol-3-yl)-3-methylbutan-2-yl]phenyl}pyridin-2-amine]"
3 nM,340 nM,"CC(C)C(C)(c1ccc(-c2cnc(N)nc2)cc1)c1c[nH]c2cc(F)c(F)cc12 (stereo not shown) [Example 67, 5-{4-[2-(5,6-difluoro-1H-indol-3-yl)-3-methylbutan-2-yl]phenyl}pyrimidin-2-amine]"
